A short description of the data set: Solubility of the sunscreen active in the preferred non-polar solvents. It is filed as physicochemical. The conditions noted are these: ethylferulate by itself, without lubricating wax as cosolvent. An excerpt: Thus, this embodiment of the present invention solves a significant problem which the prior art has heretofore been unable to overcome without emulsification, namely, the poor solubility of ethylferulate and other polar solid organic sunscreen actives in non-polar solvents, which causes difficulties in formulating sunscreen products in non-emulsified systems.

Each structure is given as a SMILES string.

As to `CCOC(=O)/C=C/c1ccc(O)c(OC)c1` [ethylferulate, ethyl ester of ferulic acid], the “solubility in the preferred solvents” value is listed as “not soluble to any significant extent”.

(Values after US20010055573A1, “Delivery systems for active ingredients including sunscreen actives and methods of making same” (Shamrock Technologies, priority 1999, published 2001).)
